{"source": "ChEMBL document CHEMBL1806472", "about": "“Nobiletin metabolites: synthesis and inhibitory activity against matrix metalloproteinase-9 production” (Bioorg Med Chem Lett, 2011)", "key": {"[1]": {"assay": "Inhibition of PMA-induced proMMP9 production in human SRA 01/04 cells after 24 hrs by SDS-PAGE analysis", "format": "functional, cell-based"}, "[2]": {"assay": "Inhibition of TNF-alpha-induced proMMP9 production in human SRA 01/04 cells after 24 hrs by SDS-PAGE analysis", "format": "functional, cell-based"}}, "data": [{"smiles": "COc1ccc(-c2cc(=O)c3c(OC)c(OC)c(OC)c(OC)c3o2)cc1OC", "note": "[NOBILETIN]", "values": [{"measurement": "IC50", "setting": "[1]", "value": 20.9, "unit": "µM"}, {"measurement": "IC50", "setting": "[2]", "value": 17, "unit": "µM"}]}, {"smiles": "COc1c(OC)c(OC)c2c(=O)cc(-c3ccc(O)c(O)c3)oc2c1OC", "values": [{"measurement": "IC50", "setting": "[1]", "value": 12.3, "unit": "µM"}, {"measurement": "IC50", "setting": "[2]", "value": 10.8, "unit": "µM"}]}, {"smiles": "COc1cc(-c2cc(=O)c3c(OC)c(OC)c(OC)c(OC)c3o2)ccc1O", "values": [{"measurement": "IC50", "setting": "[1]", "value": 3.7, "unit": "µM"}, {"measurement": "IC50", "setting": "[2]", "value": 5.5, "unit": "µM"}]}, {"smiles": "COc1ccc(-c2cc(=O)c3c(OC)c(OC)c(OC)c(OC)c3o2)cc1O", "values": [{"measurement": "IC50", "setting": "[1]", "value": 16.9, "unit": "µM"}, {"measurement": "IC50", "setting": "[2]", "value": 16.4, "unit": "µM"}]}]}
